Test results published in US12473262B2, “Aryl hydrocarbon receptor activators” (Oregon State University, priority 2019, dated 2025).
Read-outs that look alike come from different tables or passages of the source.

Assays:
in vitro [1] = details: human, microsomes, pH 7.4
Description: (§3) The assessment of metabolic stability of testing compounds was performed using human, mouse, rat, dog and monkey liver microsomes (20 mg protein/ml). Each reaction mixture contained 42.5 μL of 0.1 M potassium phosphate buffer pH 7.4, containing respective LM protein (final concentration 0.5 mg/ml). 2.5 μL of the compound stock solution was added in it (1 μM final concentration). The reaction was initiated by the addition of 5 μL NADPH solution (final Concentration 1 mM). At different time points (0, 5, 15, and 30 minutes), samples were quenched with 200 μL of cold acetonitrile containing ISTD Propranolol. Samples were centrifuged at 3500 rpm for 20 mM at 4° C. Supernatant was subjected to LC-MS/MS analysis for quantification. Verapamil was used as a positive control.

in vitro [2] = details: mouse, microsomes, pH 7.4
Description: as §3

in vitro [3] = details: rat, microsomes, pH 7.4
Description: as §3

[4] = rat, microsomes, 0.5 h, 1 μM, pH 7.4
Description: as §3

[5] = molecular target: aryl hydrocarbon receptor (AhR) (Mus musculus (Mouse), UniProt P30561); assay: AhR ligand screening: AhRE-luciferase reporter in transfected Hepa1 cells; format: cell-based; details: for Fold @ 1 nM: fold change of luciferase expression at 1 nM test compound relative to vehicle (0.1% DMSO); for Fold @ 100 nM: fold change of luciferase expression at 100 nM test compound relative to vehicle (0.1% DMSO); for Fold @ 10 uM: fold change of luciferase expression at 10 uM test compound relative to vehicle (0.1% DMSO); for Fold relative to benchmark @ 100 nM: luciferase expression at 100 nM test compound relative to 100 nM benchmark compound 11-cl-BBQ
Procedure, shortened: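 Values are fold luciferase induction relative to vehicle (0.1% DMSO), read by luminometry of lysates from Hepa1 cells carrying an AhRE-driven luciferase reporter. Cells were seeded at 1×10^4 per well, grown overnight and treated with compound before lysis.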

[6] = human, microsomes, 0.5 h, 1 μM, pH 7.4
Description: as §3

[7] = mouse, microsomes, 0.5 h, 1 μM, pH 7.4
Description: as §3

CYP-3A4 = CYP-3A4 (Homo sapiens (Human), UniProt P08684); assay: CYP panel profile: P450 inhibition, CYP-3A4; format: in vitro ADME; details: human liver microsomes
Description: (§1) 5. CYP Panel Profile: P450 Inhibition
(§2) From 10 mM stock solutions of test compounds, a dilution plate was prepared diluting serially starting from 5 mM up to 2 μM in Acetonitrile/DMSO or Methanol/DMSO Human liver Microsomes were added at required concentration as per specific CYP isoform in a deep well assay plate (1A2, 2C9, 2D6, 2B6, 2C8, 2C19, and 3A4). Compounds were spiked in all wells from dilution plate at final concentrations starting from 50 μM up to 0.02 μM, except for positive and negative control. Specific substrate were added to all wells and reactions were pre-incubated for 10 min. To start reactions, NADPH was added to all wells at 1 mM final concentration. Assay plate was mixed by vortexing and incubated at 37° C. for […] for 3A4.20 min for (1A2, 2C9, 2B6, 2C8, 2D6) and […] for 2C19. A quencher with chilled acetonitrile suitable internal standard was added. Samples were centrifuged and supernatants were collected and subjected to LC-MS/MS analysis for determination.

CYP-2D6 = CYP-2D6 (Homo sapiens (Human), UniProt P10635); assay: CYP panel profile: P450 inhibition, CYP-2D6; format: in vitro ADME; details: human liver microsomes
Description: as §1, §2

CYP-2C9 = CYP-2C9 (Homo sapiens (Human), UniProt P11712); assay: CYP panel profile: P450 inhibition, CYP-2C9; format: in vitro ADME; details: human liver microsomes
Description: as §1, §2

[8] = Liver microsomal stability, rat; details: for Rem @ RLM × 30 min: rat liver microsomes, 1 μM compound, 0.5 mg/ml protein; for half-life at 1 μM / microsomal CLint at 1 μM: rat, liver microsomes, pH 7.4
Description: as §3

CYP-2C8 = CYP-2C8 (Homo sapiens (Human), UniProt P10632); assay: CYP panel profile: P450 inhibition, CYP-2C8; format: in vitro ADME; details: human liver microsomes
Description: as §1, §2

[9] = Liver microsomal stability, mouse; details: for Rem @ MLM × 30 min: mouse liver microsomes, 1 μM compound, 0.5 mg/ml protein; for half-life at 1 μM / microsomal CLint at 1 μM: mouse, liver microsomes, pH 7.4
Description: as §3

[10] = Liver microsomal stability, human; details: for Rem @ HLM × 30 min: human liver microsomes, 1 μM compound, 0.5 mg/ml protein; for half-life at 1 μM / microsomal CLint at 1 μM: human, liver microsomes, pH 7.4
Description: as §3

CYP-2B6 = CYP-2B6 (Homo sapiens (Human), UniProt P20813); assay: CYP panel profile: P450 inhibition, CYP-2B6; format: in vitro ADME; details: human liver microsomes
Description: as §1, §2

CYP-1A2 = CYP-1A2 (Homo sapiens (Human), UniProt P05177); assay: CYP panel profile: P450 inhibition, CYP-1A2; format: in vitro ADME
Description: as §1, §2

CYP-2C19 = CYP-2C19 (Homo sapiens (Human), UniProt P33261); assay: CYP panel profile: P450 inhibition, CYP-2C19; format: in vitro ADME; details: human liver microsomes
Description: as §1, §2

[11] = In vivo PK study, intravenous and oral administration in male mice; set-up: species or system mouse; details: plasma; for C0: read-out: C0_Cmax
Description: In Vivo PK Study Pharmacokinetics of Exemplary Compounds 362 and 893 Following an Intravenous and Oral Administration in Male C57BL/6J Mice.
Male C57BL/6J mice, approximately 8-10 weeks old, were obtained from the vivarium of Fundación Ciencia & Vida Chile (Santiago, Chile). Dosing solution of Compound 362 for PO administration was formulated in a vehicle containing 40% DMSO, 20% Kolliphor EL, 40% Propylene Glycol at 0.8 mg/mL. Dosing solution of Compound 362 for IV administration was formulated in a vehicle containing 30% DMSO, 20% Kolliphor EL, 50% PBS at […].
Male […] mice, approximately 8-11 weeks old, 22-27 grams were obtained from the vivarium Fundación Ciencia & Vida Chile (Santiago, Chile). Animals were acclimated for a minimum period of 4 days upon arrival at the testing facility. Animals were weighed, identified by marking the tail with numbers using a non-toxic permanent marker and designated into the following treatment groups on the day of dosing:
Group 1 animals received an IV administration via caudal vein of 2 mg/kg PRXS0362 dosing solution.
Group 2 animals received a PO administration via feeding tubes (20 gauge) of 8 mg/kg PRXS0362 dosing solution.
Terminal whole blood was collected via cardiac puncture for group 1 at the following time points: 5, 10, 15, 30, 60, 120, 240, 360, and 480 minutes. Non-dosed mice were used to collect samples of zero time points. For the group 2 at the following time point: 15, 30, 60, 120, 240, 360, and 480 minutes.
Whole blood, approximately 300 μL per time point, was collected into microtainer tubes with EDTA (K2). Blood samples were centrifuged immediately at approximately 9,000 G at 4° C. for 5 minutes and plasma separated. Plasma samples were placed into individually labeled tubes and stored in a −80° C. freezer prior to LC/MS/MS analysis.
The whole brain was collected at each point only for both groups, for this the animals were euthanized with CO2, decapitated, the brain was extracted weighed, frozen in liquid nitrogen and stored at −80° C. prior to LC/MS/MS analysis.
Compound 893 was tested by the same protocol as above.

[12] = human liver microsomes, read-out: CYP-1A2 IC50

CYP-1A2, sequence (P05177 whole entry): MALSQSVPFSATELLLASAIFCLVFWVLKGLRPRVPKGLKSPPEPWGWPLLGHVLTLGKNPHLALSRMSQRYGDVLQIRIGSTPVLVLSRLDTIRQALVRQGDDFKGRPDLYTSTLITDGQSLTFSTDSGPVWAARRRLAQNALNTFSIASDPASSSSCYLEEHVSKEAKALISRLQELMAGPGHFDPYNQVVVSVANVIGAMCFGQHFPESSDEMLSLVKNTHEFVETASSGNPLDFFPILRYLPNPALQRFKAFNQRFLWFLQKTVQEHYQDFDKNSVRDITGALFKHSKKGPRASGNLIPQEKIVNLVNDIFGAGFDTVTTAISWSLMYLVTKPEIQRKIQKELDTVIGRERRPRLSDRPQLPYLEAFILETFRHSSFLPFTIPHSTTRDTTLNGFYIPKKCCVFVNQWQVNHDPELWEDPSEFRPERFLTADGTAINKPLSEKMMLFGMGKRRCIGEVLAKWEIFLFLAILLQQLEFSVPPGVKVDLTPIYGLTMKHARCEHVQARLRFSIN
CYP-2D6, sequence (P10635 whole entry): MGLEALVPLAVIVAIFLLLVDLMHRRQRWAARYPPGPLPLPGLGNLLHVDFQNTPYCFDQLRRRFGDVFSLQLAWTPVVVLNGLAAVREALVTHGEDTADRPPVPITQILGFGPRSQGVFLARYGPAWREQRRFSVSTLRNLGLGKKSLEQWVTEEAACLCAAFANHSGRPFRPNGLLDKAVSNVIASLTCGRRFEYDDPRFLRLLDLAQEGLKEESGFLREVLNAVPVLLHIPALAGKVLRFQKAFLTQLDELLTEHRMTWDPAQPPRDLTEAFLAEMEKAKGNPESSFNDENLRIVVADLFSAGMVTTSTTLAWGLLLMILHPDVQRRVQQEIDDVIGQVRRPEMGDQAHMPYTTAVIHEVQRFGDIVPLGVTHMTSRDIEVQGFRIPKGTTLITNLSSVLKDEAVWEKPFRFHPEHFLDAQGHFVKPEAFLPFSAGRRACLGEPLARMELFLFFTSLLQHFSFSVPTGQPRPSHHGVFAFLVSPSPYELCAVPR
CYP-3A4, sequence (P08684 whole entry): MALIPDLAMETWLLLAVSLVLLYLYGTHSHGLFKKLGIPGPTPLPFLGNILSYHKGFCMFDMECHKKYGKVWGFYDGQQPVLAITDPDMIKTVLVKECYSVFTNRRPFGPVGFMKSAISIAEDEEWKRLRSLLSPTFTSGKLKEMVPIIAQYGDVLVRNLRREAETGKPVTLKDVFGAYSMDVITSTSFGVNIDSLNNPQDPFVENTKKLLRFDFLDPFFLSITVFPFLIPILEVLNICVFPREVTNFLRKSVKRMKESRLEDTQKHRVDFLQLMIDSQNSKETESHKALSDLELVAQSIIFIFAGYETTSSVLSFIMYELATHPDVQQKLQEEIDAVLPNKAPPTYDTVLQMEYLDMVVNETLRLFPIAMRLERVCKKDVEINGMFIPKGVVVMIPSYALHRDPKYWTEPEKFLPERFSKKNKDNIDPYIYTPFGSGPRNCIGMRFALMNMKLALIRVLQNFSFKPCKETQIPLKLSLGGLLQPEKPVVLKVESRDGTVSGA
CYP-2C8, sequence (P10632 whole entry): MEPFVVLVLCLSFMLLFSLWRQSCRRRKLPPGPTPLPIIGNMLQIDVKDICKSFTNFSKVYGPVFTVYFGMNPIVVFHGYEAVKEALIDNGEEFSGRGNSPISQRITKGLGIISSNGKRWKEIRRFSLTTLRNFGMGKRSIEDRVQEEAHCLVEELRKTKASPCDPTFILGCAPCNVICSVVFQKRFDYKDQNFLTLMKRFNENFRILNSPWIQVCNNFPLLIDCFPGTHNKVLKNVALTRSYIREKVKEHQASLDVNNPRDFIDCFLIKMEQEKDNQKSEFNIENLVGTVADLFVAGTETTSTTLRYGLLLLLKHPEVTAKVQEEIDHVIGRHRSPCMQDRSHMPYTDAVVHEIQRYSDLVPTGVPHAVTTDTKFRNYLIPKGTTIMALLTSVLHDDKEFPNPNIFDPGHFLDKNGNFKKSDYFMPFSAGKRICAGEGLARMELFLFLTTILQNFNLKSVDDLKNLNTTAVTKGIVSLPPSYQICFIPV
CYP-2C9, sequence (P11712 whole entry): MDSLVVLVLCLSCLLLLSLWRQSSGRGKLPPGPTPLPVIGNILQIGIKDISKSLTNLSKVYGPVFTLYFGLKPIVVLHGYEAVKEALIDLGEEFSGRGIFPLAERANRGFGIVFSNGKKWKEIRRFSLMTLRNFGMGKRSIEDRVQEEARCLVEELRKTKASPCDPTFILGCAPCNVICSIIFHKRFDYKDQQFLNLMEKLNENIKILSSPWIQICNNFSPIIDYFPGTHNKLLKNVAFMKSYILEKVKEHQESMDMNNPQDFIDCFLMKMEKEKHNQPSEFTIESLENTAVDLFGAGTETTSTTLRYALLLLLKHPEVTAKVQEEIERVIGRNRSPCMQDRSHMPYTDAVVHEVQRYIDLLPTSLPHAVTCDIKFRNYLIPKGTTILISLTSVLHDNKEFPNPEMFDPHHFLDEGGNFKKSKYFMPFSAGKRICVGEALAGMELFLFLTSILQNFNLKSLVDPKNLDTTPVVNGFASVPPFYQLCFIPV
CYP-2B6, sequence (P20813 whole entry): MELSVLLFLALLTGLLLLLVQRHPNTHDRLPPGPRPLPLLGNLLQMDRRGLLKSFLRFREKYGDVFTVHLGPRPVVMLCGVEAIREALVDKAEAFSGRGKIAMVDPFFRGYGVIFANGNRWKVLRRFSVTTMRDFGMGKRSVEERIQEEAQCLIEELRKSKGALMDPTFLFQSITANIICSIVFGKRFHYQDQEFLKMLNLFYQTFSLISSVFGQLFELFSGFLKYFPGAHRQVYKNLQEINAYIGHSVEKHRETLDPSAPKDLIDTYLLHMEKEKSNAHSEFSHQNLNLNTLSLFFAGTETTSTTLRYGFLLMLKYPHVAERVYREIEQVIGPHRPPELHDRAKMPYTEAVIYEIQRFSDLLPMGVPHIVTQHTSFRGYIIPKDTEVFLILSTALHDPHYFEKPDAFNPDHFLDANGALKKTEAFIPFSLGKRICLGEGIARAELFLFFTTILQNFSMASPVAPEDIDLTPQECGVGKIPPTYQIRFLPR
aryl hydrocarbon receptor (AhR), sequence (P30561 10-805): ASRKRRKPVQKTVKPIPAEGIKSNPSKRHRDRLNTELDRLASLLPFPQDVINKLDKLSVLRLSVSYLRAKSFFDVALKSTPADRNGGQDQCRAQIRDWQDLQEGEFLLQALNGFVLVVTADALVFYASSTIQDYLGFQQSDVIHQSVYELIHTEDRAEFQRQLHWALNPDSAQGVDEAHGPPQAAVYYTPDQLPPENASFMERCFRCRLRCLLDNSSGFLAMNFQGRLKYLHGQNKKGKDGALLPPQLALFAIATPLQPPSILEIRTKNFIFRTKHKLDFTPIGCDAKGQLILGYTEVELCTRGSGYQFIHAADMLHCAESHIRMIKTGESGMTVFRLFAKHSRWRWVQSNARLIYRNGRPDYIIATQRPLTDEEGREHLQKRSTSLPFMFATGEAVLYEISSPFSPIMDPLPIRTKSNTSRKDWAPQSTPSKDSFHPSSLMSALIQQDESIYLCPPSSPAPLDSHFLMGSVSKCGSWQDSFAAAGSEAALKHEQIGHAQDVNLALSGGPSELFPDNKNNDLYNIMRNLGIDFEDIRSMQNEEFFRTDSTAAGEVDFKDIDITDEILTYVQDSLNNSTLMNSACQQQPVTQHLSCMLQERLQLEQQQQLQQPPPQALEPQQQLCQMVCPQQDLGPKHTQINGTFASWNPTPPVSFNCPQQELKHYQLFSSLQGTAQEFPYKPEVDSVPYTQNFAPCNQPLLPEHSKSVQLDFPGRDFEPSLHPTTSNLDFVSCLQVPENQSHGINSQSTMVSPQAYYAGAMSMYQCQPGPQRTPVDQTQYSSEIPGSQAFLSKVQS
aryl hydrocarbon receptor (AhR), sequence (P53762 whole entry partner): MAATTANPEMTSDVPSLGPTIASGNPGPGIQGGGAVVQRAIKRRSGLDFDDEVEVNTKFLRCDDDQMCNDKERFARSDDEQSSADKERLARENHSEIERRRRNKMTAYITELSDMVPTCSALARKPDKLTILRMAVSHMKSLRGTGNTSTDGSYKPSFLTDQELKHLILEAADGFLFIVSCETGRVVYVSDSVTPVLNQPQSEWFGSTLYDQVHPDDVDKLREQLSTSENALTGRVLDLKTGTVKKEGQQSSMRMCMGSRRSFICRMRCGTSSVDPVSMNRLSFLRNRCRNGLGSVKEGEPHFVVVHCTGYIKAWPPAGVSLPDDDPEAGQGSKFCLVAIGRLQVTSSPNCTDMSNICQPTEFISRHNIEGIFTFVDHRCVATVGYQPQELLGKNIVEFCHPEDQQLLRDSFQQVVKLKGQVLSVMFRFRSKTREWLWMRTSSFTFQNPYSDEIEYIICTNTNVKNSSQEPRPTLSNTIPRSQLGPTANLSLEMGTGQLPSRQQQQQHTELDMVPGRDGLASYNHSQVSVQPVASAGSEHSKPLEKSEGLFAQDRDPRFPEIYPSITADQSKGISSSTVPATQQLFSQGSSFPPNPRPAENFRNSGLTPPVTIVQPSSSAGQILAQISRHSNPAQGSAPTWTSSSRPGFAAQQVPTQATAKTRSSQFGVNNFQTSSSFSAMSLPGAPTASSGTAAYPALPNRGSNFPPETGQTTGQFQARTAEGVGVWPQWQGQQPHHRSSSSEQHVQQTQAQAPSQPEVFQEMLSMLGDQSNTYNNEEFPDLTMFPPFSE

SMILES	Fold @ 1 nM [5]	Fold @ 100 nM [5]	Fold @ 10 uM [5]	Fold relative to benchmark @ 100 nM [5]	IC50 (CYP-3A4)	IC50 (CYP-2D6)	IC50 (CYP-2C9)	Rem @ RLM × 30 min [8]	half-life at 1 μM [8]	microsomal CLint at 1 μM [8]	IC50 (CYP-2C8)	Rem @ MLM × 30 min [9]	half-life at 1 μM [9]	microsomal CLint at 1 μM [9]	Rem @ HLM × 30 min [10]	half-life at 1 μM [10]	microsomal CLint at 1 μM [10]	IC50 (CYP-2B6)	IC50 (CYP-1A2; [12])	IC50 (CYP-2C19)	other results
O=C(c1cccc2ccccc12)c1c[nH]c2cc(Cl)c(Cl)cc12 [Compound 434]	1 fold	1 fold	9 fold	0.03 fold																	half-life at 1 μM (in vitro [1]): 48.7 min; microsomal CLint at 1 μM (in vitro [1]): 28.5 µL/min/mg; half-life at 1 μM (in vitro [2]): 10.7 min; microsomal CLint at 1 μM (in vitro [2]): 129 µL/min/mg; half-life at 1 μM (in vitro [3]): 28 min; microsomal CLint at 1 μM (in vitro [3]): 49.6 µL/min/mg; Rem @ RLM × 30 min [4]: 41.6%; Rem @ HLM × 30 min [6]: 63.4%; Rem @ MLM × 30 min [7]: 10.6%
O=S(=O)(c1ccc(C(F)(F)F)cc1)n1c(-c2cccc3ccccc23)nc2ccc(Cl)cc21 [Compound 782]	1 fold	23 fold	19 fold	0.92 fold	0.4 µM	> 50 µM	> 50 µM	31.8%	17.8 min	78 µL/min/mg	> 50 µM	14.9%	10.9 min	127 µL/min/mg	66.4%	50.5 min	27.4 µL/min/mg	> 50 µM	47.9 µM	6 µM	
Clc1ccc2[nH]c(-c3cccc4ccccc34)cc2c1 [Compound 893, 5-chloro-2-(naphthalen-1-yl)-1H-indole]	1 fold	49 fold	49 fold	0.91 fold	23.3 µM	31.7 µM	7.2 µM	51.7%	35.8 min	38.8 µL/min/mg	7.7 µM	16.7%	12.2 min	114 µL/min/mg	19.6%	14.1 min	98.5 µL/min/mg	8 µM	0.5 µM	2.9 µM	CL_CL/F ([11]; IV 2 mg/Kg): 4.218 L/[Kg*h]; Vd_Vd/F ([11]; IV 2 mg/Kg): 8.777 L/kg; thalf ([11]; IV 2 mg/Kg): 1.442 h; CL_CL/F ([11]; PO 8 mg/Kg): 5.739 L/[Kg*h]; Vd_Vd/F ([11]; PO 8 mg/Kg): 12.846 L/kg; thalf ([11]; PO 8 mg/Kg): 1.551 h; AUC(0-inf) ([11]; mouse, IV 2 mg/Kg): 474 ng·h/mL; AUC(0-t) ([11]; mouse, IV 2 mg/Kg): 451 ng·h/mL; MRT ([11]; mouse, IV 2 mg/Kg): 120 min; C0 ([11]; mouse, IV 2 mg/Kg): 174 ng/mL; bioavailability ([11]; mouse, PO 8 mg/Kg vs IV 2 mg/Kg): 73.5%; AUC(0-inf) ([11]; mouse, PO 8 mg/Kg): 1390 ng·h/mL; AUC(0-t) ([11]; mouse, PO 8 mg/Kg): 1330 ng·h/mL; MRT ([11]; mouse, PO 8 mg/Kg): 160 min; Tmax ([11]; mouse, PO 8 mg/Kg): 60 min; C0 ([11]; mouse, PO 8 mg/Kg): 398 ng/mL
O=C(C1CC1)n1c(-c2cccc3ccccc23)cc2cc(Cl)ccc21 [Compound 972]	1 fold	2 fold	45 fold	0.04 fold	> 50 µM	> 50 µM	7 µM	20.7%	13.3 min	105 µL/min/mg	> 48.8 µM	26.7%	15.9 min	87.1 µL/min/mg	73.0%	74.9 min	18.5 µL/min/mg	4.3 µM	7 µM	0.2 µM	
O=C(c1ccc(F)c(F)c1)n1c(-c2cccc3ccccc23)cc2cc(Cl)ccc21 [Compound 973]	1 fold	1 fold	1 fold	0.02 fold	> 50 µM	> 50 µM	> 50 µM	46.3%	26.5 min	52.3 µL/min/mg	> 50 µM	58.7%	39.9 min	34.8 µL/min/mg	34.2%	16.7 min	83.1 µL/min/mg	> 50 µM		23.1 µM	IC50 (CYP-1A2): > 50 µM
